Values of other authors, collected in PMC9610729, “Anticholinesterase Activity of Selected Medicinal Plants from Navarra Region of Spain and a Detailed Phytochemical Investigation of Origanum vulgare L. ssp. vulgare” (Molecules, 2022).
Read-outs that look alike come from different tables or passages of the source.

Tests used:
AChE [1] = tested on: AChE; set-up: method as in PMID 35745206
AChE [2] = tested on: AChE

SMILES | AChE inhibition (AChE [1]) | AChE inhibition (AChE [2])
COc1cc(C(=O)O)cc(OC)c1O [Compound 7, Syringic acid] | high inhibition percentage | –
O=c1c(O)c(-c2ccc(O)cc2)oc2cc(O)cc(O)c12 [kaempferol] | – | efficient AChE inhibitors
O=c1cc(-c2ccc(O)c(O)c2)oc2cc(O)cc(O)c12 [luteolin] | – | to a lesser extent
COC(=O)c1cc(OC)c(O)c(OC)c1 [methyl syringinate] | best properties | –
O=c1c(O)c(-c2ccc(O)c(O)c2)oc2cc(O)cc(O)c12 [quercetin] | – | efficient AChE inhibitors
